target: KRasG12C (M1-K169, biotinylated on the N-terminus) (Homo sapiens (Human), UniProt P01116, G12C); assay: Covalent competition assay: scintillation proximity assay (SPA) quantifying covalent modification of KRASG12C; type: binding; conditions: competition with radiolabeled covalent probe (Compound B/Compound A), 2 hours incubation, 10 nM KRasG12C
Procedure: Cells were harvested by centrifugation and frozen at −80° C. until further processing. […] The cells were lysed by 4 passages through an Avestin Emulsiflex at about 20000 psi and insoluble debris removed by centrifugation and filtered through a 0.45 µm Durapore membrane (Millipore). […] Eluted protein fractions were analyzed by Novex NuPage 4-12% PAGE. […] The protein in the flow through was subjected to a final polishing step on a HiLoad 16/60 Superdex 200 prep grade size-exclusion column pre-equilibrated with SEC-buffer (20 mM HEPES pH 7.4, 150 mM NaCl, 5 mM MgCl2, 1 µM GDP). Positive fractions were determined by PAGE (Novex NuPage 4-12% BisTris) analysis.
A scintillation proximity assay (SPA) was used to determine the potency of the compounds.
This assay measures the ability of the test compound to compete with the radiolabeled covalent probe for binding to and covalently modify KRASG12C.
(see above for synthesis of Compound A and Compound B). A serial dilution of the compounds to be tested is mixed with a fixed concentration of the radiolabeled covalent probe before incubation with KRASG12C:GDP as described below. KRASG12C can either be bound by the radiolabeled covalent probe (Compound B), resulting in light being emitted from the beads, or bound by covalent test compound preventing signal generation.
A 1/20 isotopic dilution of labeled (Compound B) and non-labeled covalent (Compound A) probe was prepared and added to all wells on the plate. The reaction was started by addition of KRasG12C (M1-K169, biotinylated on the N-terminus) to the compounds and incubated for 2 hours with continuous agitation allowing for full modification of KRasG12C with probe or test compounds. Final concentrations in an assay volume of 40 μL were 10 nM KRasG12C, 25 nM radio-ligand and 475 nM unlabelled ligand. The assay buffer contained 20 mM Tris-HCl pH 7.5 (Invitrogen), 150 mM NaCl (Sigma Aldrich), 0.1 mM MgCl2 (Sigma Aldrich), and 0.01% Tween-20 (Sigma Aldrich). Following addition of 50 μL of a 400 μg/mL suspension of streptavidin-coated YSi beads (Perkin Elmer), plates were incubated for a further 30 min with continuous agitation before reading the plates on a scintillation counter (Topcount NXT 384 (Packard).
Evaluation was carried out using assay data analysis software (such as the standard Novartis in-house Helios software application, Novartis Institutes for BioMedical Research, unpublished) using the methods described in Formenko et al., Robust Regression for high-throughput screening, Computer Methods and Programs in Biomedicine, 2006, 82, 31-37. Following normalization of activity values for the wells to % inhibition (% inhibition=[(high control−sample)/(high control−low control)]×100), IC50 fitting was carried out from the duplicate determinations present on each plate according to Formenko et al., 2006.
Evaluation can also be carried out using commercially available software which is designed to derive IC50 values using 4-parameter fits (e.g. GraphPad Prism, XL fit).

| SMILES | IC50 |
| --- | --- |
| C=CC(=O)N1CC2(CC(n3nc(N4CCN(C5CCOCC5)CC4(C)C)c(-c4c(Cl)c(C)cc5[nH]ncc45)c3C)C2)C1 (single isomer, unassigned) [Example 134a, 1-(6-(4-(5-chloro-6-methyl-1H-indazol-4-yl)-3-(2,2-dimethyl-4-(tetrahydro-2H-pyran-4-yl)piperazin-1-yl)-5-methyl-1H-pyrazol-1-yl)-2-azaspiro[3.3]heptan-2-yl)prop-2-en-1-one] | > 5000 nM |
| C=CC(=O)N1CC2(CC(n3nc(N4CCCc5c(cnn5C)C4)c(-c4c(Cl)c(C)cc5[nH]ncc45)c3C)C2)C1 (single isomer, unassigned) [Example 43b, 1-(6-(4-(5-chloro-6-methyl-1H-indazol-4-yl)-5-methyl-3-(1-methyl-4,6,7,8-tetrahydropyrazolo[4,3-c]azepin-5(1H)-yl)-1H-pyrazol-1-yl)-2-azaspiro[3.3]heptan-2-yl)prop-2-en-1-one] | 758 nM |
| C=CC(=O)N1CC2(CC(n3nc(N4CCC(N(C)C5COC5)CC45CCC5)c(-c4c(Cl)c(C)cc5[nH]ncc45)c3C)C2)C1 (single isomer, unassigned) [Example 51b, 1-(6-(4-(5-chloro-6-methyl-1H-indazol-4-yl)-5-methyl-3-(8-(methyl(oxetan-3-yl)amino)-5-azaspiro[3.5]nonan-5-yl)-1H-pyrazol-1-yl)-2-azaspiro[3.3]heptan-2-yl)prop-2-en-1-one] | 668 nM |
| C=CC(=O)N1CC2(CC(n3nc(N4CCN(CC(C)(C)O)CC45CCC5)c(-c4c(Cl)c(F)cc5[nH]ncc45)c3C)C2)C1 (single isomer, unassigned) [Example 167a, 1-(6-(4-(5-chloro-6-fluoro-1H-indazol-4-yl)-3-(8-(2-hydroxy-2-methylpropyl)-5,8-diazaspiro[3.5]nonan-5-yl)-5-methyl-1H-pyrazol-1-yl)-2-azaspiro[3.3]heptan-2-yl)prop-2-en-1-one] | > 5000 nM |
| C=CC(=O)N1CC2(CC(n3nc(N4CCN(C[C@@H]5COCCO5)C[C@]4(C)CC)c(-c4c(Cl)c(Cl)cc5[nH]ncc45)c3C)C2)C1 (single isomer, unassigned) [Example 89a] | 3400 nM |
| C=CC(=O)N1CC2(CC(n3nc(N4CCN(C5CCCOC5)C[C@]4(C)CC)c(-c4c(Cl)c(C)cc5[nH]ncc45)c3C)C2)C1 (single isomer, unassigned) [Example 157d] | 7 nM |
| C=CC(=O)N1CC2(CC(n3nc(N4CCN(C5COC5)CC45CCC5)c(-c4c(C)c(O)cc(C)c4Cl)c3C)C2)C1 (single isomer, unassigned) [Example 49a, 1-(6-(4-(2-chloro-5-hydroxy-3,6-dimethylphenyl)-5-methyl-3-(8-(oxetan-3-yl)-5,8-diazaspiro[3.5]nonan-5-yl)-1H-pyrazol-1-yl)-2-azaspiro[3.3]heptan-2-yl)prop-2-en-1-one] | 1790 nM |
| C=CC(=O)N1CC2(CC(n3nc(N4CCn5ccnc5C4)c(-c4c(Cl)c(C)cc5[nH]ncc45)c3C)C2)C1 (single isomer, unassigned) [Example 19a, 1-(6-(4-(5-chloro-6-methyl-1H-indazol-4-yl)-3-(5,6-dihydroimidazo[1,2-a]pyrazin-7(8H)-yl)-5-methyl-1H-pyrazol-1-yl)-2-azaspiro[3.3]heptan-2-yl)prop-2-en-1-one] | 894 nM |
| C=C(F)C(=O)N1CC2(CC(n3nc(N4CCN(C[C@@H]5COCCO5)C[C@]4(C)CC)c(-c4c(Cl)c(C)cc5[nH]ncc45)c3C)C2)C1 (single isomer, unassigned) [Example 174a] | > 5000 nM |
| C=CC(=O)N1CC2(CC(n3nc(N4CCn5ccnc5C4(C)C)c(-c4c(Cl)c(C)cc5[nH]ncc45)c3C)C2)C1 (single isomer, unassigned) [Example 23a, 1-(6-(4-(5-chloro-6-methyl-1H-indazol-4-yl)-3-(8,8-dimethyl-5,6-dihydroimidazo[1,2-a]pyrazin-7(8H)-yl)-5-methyl-1H-pyrazol-1-yl)-2-azaspiro[3.3]heptan-2-yl)prop-2-en-1-one] | > 50000 nM |
| C=CC(=O)N1CC2(CC(n3nc(N4CCC(N(CC)C5COC5)CC4(C)C)c(-c4c(Cl)c(C)cc5[nH]ncc45)c3C)C2)C1 (single isomer, unassigned) [Example 48b, 1-(6-(4-(5-chloro-6-methyl-1H-indazol-4-yl)-3-(4-(ethyl(oxetan-3-yl)amino)-2,2-dimethylpiperidin-1-yl)-5-methyl-1H-pyrazol-1-yl)-2-azaspiro[3.3]heptan-2-yl)prop-2-en-1-one] | 6 nM |
| C=CC(=O)N1CC2(CC(n3nc(N4CCN(C[C@@H]5COCCO5)CC45CCC5)c(-c4c(Cl)c(Cl)cc5[nH]ncc45)c3C)C2)C1 (single isomer, unassigned) [Example 171b] | 8 nM |
| C=CC(=O)N1CC2(CC(n3nc(N4CCN(C5COC5)CC45CCCC5)c(-c4c(Cl)c(C)cc5[nH]ncc45)c3C)C2)C1 (single isomer, unassigned) [Example 144b, 1-(6-(4-(5-chloro-6-methyl-1H-indazol-4-yl)-5-methyl-3-(9-(oxetan-3-yl)-6,9-diazaspiro[4.5]decan-6-yl)-1H-pyrazol-1-yl)-2-azaspiro[3.3]heptan-2-yl)prop-2-en-1-one] | 10 nM |
| C=CC(=O)N1CC2(CC(n3nc(N4CCC(N(CC)C5COC5)CC4(C)C)c(-c4c(Cl)c(Cl)cc5[nH]ncc45)c3C)C2)C1 (single isomer, unassigned) [Example 61b, 1-(6-(4-(5,6-dichloro-1H-indazol-4-yl)-3-(4-(ethyl(oxetan-3-yl)amino)-2,2-dimethylpiperidin-1-yl)-5-methyl-1H-pyrazol-1-yl)-2-azaspiro[3.3]heptan-2-yl)prop-2-en-1-one] | 6 nM |

Other lines, results leading:

| IC50 | SMILES |
| --- | --- |
| 939 nM | CC[C@@]1(C)CN(C[C@@H]2COCCO2)CCN1c1nn(C2CC3(C2)CN(C(=O)/C=C/Cl)C3)c(C)c1-c1c(Cl)c(C)cc2[nH]ncc12 (single isomer, unassigned) [Example 175a] |
| 19 nM | C=CC(=O)N1CC2(CC(n3nc(N4CCN(c5nccn5C)C[C@]4(C)CC)c(-c4c(Cl)c(C)cc5[nH]ncc45)c3C)C2)C1 (single isomer, unassigned) [Example 194a] |
| 831 nM | C=CC(=O)N1CC2(CC(n3nc(N4CC[C@@H](CN5CCN6C(=O)OCC6C5)CC4(C)C)c(-c4c(Cl)c(Cl)cc5[nH]ncc45)c3C)C2)C1 (single isomer, unassigned) [Example 312a] |
| 1400 nM | C=CC(=O)N1CC2(CC(n3nc(N4CC[C@@H](CN5CCN(C6COC6)CC5)CC4(C)C)c(-c4c(C)c(Cl)cc5[nH]ncc45)c3C)C2)C1 (single isomer, unassigned) [Example 244a] |
| 8 nM | C=CC(=O)N1CC2(CC(n3nc(N4CCC(CN5CC6COCC6C5)CC4(C)C)c(-c4c(Cl)c(Cl)cc5[nH]ncc45)c3C)C2)C1 (single isomer, unassigned) [Example 227b, 1-(6-(4-(5,6-dichloro-1H-indazol-4-yl)-3-(2,2-dimethyl-4-((tetrahydro-1H-furo[3,4-c]pyrrol-5(3H)-yl)methyl)piperidin-1-yl)-5-methyl-1H-pyrazol-1-yl)-2-azaspiro[3.3]heptan-2-yl)prop-2-en-1-one] |
| 8 nM | C=CC(=O)N1CC2(CC(n3nc(N4CCN(CCN5CCOCC5=O)C[C@]4(C)CC)c(-c4c(Cl)c(C)cc5[nH]ncc45)c3C)C2)C1 (single isomer, unassigned) [Example 177a] |
| 14 nM | C=CC(=O)N1CC2(CC(n3nc(N4CC[C@@H](CN5CCN(C6COC6)CC5)CC4(C)C)c(-c4c(Cl)c(F)cc5[nH]ncc45)c3C)C2)C1 (single isomer, unassigned) [Example 245b] |
